Assay results as given in US6955818B1, “Pour-on formulations” (Eli Lilly and Company, priority 1999, dated 2005).
Entries after “also recorded” stand apart in the source; their conditions may differ.

Assays:
Merino sheep skin = test: Pour-on carrier/vehicle sheep skin irritation studies (histological scoring); format: in vivo; conditions: for Mean skin irritation scores: 1 mL applied to skin of recently shorn Merino sheep, histological score 0-15 (0 no change, 15 very severe damage; normal 2-4, >4 abnormal, >7 very abnormal); for skin irritancy / histological dermatitis (in words): applied to skin of recently shorn Merino sheep, histology
Description: Studies were conducted to investigate and characterise the changes occurring in Merino sheep skin following the application of a range of candidate pour-on formulation components in order to discern safe carriers. Chemicals, emollients, wool grease derivatives and a wide range of formulations were applied (in 1 mL volumes) to each of 18 sites on the back and flanks of 15 recently shorn Merino sheep.
In the first study, skin samples were collected at necropsy 3½weeks after application. In subsequent studies, skin samples were collected 2 weeks after application. Standard haematoxylin and eosin stained sections were prepared from each piece of treated skin. A histological scoring system was devised to allow comparison of treatments. Each skin was assessed for the degree of hyperkeratosis, acanthosis and inflammatory cell infiltrate of the superficial dermis and given a rating score from 0–15. A score of 0=no change through to a score of 15 for very severe damage. Normal skin scored 2–4, >4 was abnormal and >7 was very abnormal. Treatments yielding a score ? 4.5 were considered safe. […]

[1] = Example 12: physical characteristics and freezing points of solvents and solvent combinations; format: physicochemical; conditions: vehicle alone
Description: The physical characteristics of various individual solvents and solvent combinations were determined.

Bovicola ovis [2] = test: Example 4: therapeutic efficacy and dose titration of spinosad pour-on, sheep housed outdoors; format: in vivo; conditions: 1 mL/5 kg
Description: This study was carried out to select the dose of spinosad required to eradicate sheep body lice when applied as a pour-on in OP/IPM/OSU (70:15:15) containing 5% oleic acid, and to compare the efficacy of spinosad at 0.4 mg/kg in a suspension concentrate (SC) formulation applied as a pour-on with that of the pour-on organic solvent formulation. The spinosad formulations were applied at 1 mL/5 kg and at 0, 0.2, 0.4, 0.8, 1.6 and 3.2 mg/kg to 6 groups of 6 recently shorn sheep that were housed outdoors for 6 weeks.

[3] = Example 5: diffusion of 14C-zeta-cypermethrin on sheep skin in a variety of carriers; format: in vivo; conditions: 1 mL/5 kg on backline of sheep; for spread of zeta-cypermethrin from the backline (in words): carrier with 10 mg/mL 14C-spiked zeta-cypermethrin, wool at 2, 7.5, 15 cm meridians up to day 14
Description: This study compared the amount and rate of diffusion of ^14C-labelled zeta-cypermethrin from the dorsal midline of sheep, when applied in wool grease, in an aqueous formulation and in a range of test carriers.
Each formulation was applied to the backline of three sheep at 1 mL/5 kg body weight. Wool was collected from three 12×12-mm squares chosen at random, along meridian lines drawn 2, 7.5 and 15 cm down the side of each sheep from the backline. The wool samples were collected at 1, 2, 4, 8, 11 and 14 days after treatment, and each day's samples were pooled. The clipped areas were also swabbed. At day 14 after treatment, the wool at the site of application was collected and back and perirenal fat samples were collected. The quantity of zeta-cypermethrin in each sample was measured by liquid scintillation counting.

Bovicola ovis [4] = test: Example 3: spinosad in a variety of carriers as pour-on, lice control on sheep housed indoors; format: in vivo; conditions: carrier containing spinosad, 0.4 mg/kg, 1 mL/5 kg
Description: The aim of this study was to select the most efficacious of a range of eight formulations that were selected on the basis of safety, physical properties, efficacy, cost and theories of dermal insecticide spread.
Each formulation was prepared to provide spinosad at a dose of 0.4 mg/kg and applied at a rate of 1 mL/5 kg of body weight.

[5] = test system: Bovicola ovis (Hartley, Claremont, susceptible and slightly resistant strains); test: Example 6: zeta-cypermethrin in a variety of carriers, lice control on sheep; format: in vivo; conditions: for lice control, susceptible strain (in words): sheep infested with SP-susceptible strain
Description: These studies were devised to determine the efficacy of zeta-cypermethrin (at 2 mg/kg of body weight) in several nonaqueous formulations, and a commercial formulation of deltamethrin, on sheep infested with a severely synthetic pyrethroid (SP) resistant (Hartley) strain and a moderately SP resistant (Claremont) strain of Bovicola ovis. Some additional studies were undertaken with susceptible and slightly resistant lice to determine whether zeta-cypermethrin was able to kill lice under optimum conditions.

[6] = test system: Bovicola ovis (highly synthetic pyrethroid (SP) resistant, Hartley strain of lice); test: Example 2: wool grease formulations and IPM with zeta-cypermethrin and spinosad, lice control on sheep; format: in vivo; conditions: for efficacy at eight weeks: 2 mL/10 kg
Description: The purposes of this study were to evaluate wool grease as a formulation to deliver spinosad, to determine the dose required to kill 100% of lice in sheep and to evaluate the suitability of the formulation to deliver zeta-cypermethrin, compared with an isopropyl myristate (IPM) formulation.
Sheep were heavily infested with the highly synthetic pyrethroid (SP) resistant, Hartley strain of lice. Sheep were shorn, lice counted and sheep allocated to ten groups of six sheep, each divided into three groups of two per treatment. All sheep were treated at the rate of 2 mL of test formulation/10 kg of body weight. Treatments were, respectively: wool grease only; 2 mg/kg deltamethrin and 4 mg/kg alphacypermethrin in commercial formulations; spinosad in wool grease at 0.08 mg/kg, 0.4 mg/kg, 2 mg/kg and 10 mg/kg; zeta-cypermethrin in wool grease at 0.66 mg/kg and 2 mg/kg; and spinosad in IPM at 0.4 mg/kg. Lice numbers were counted weekly for eight weeks.

[7] = 2 mg/kg (deltamethrin in commercial formulation; zeta-cypermethrin in wool grease)

Compound: CCCCCCCCCCCCCCCC(=O)OCCCCCCCC [OP, octyl palmitate]
- Mean skin irritation scores (Merino sheep skin): 3.3
- skin irritancy / histological dermatitis (in words) (Merino sheep skin): non-irritant
- Physical Properties (in words) [1]: spreads, lubricant

Compound: spinosad
- Efficacy (%) at Day 41 (Bovicola ovis [2]; spinosad 0.2 mg/kg in OP/IPM/OSU (70:15:15) with 5% oleic acid): 37%
- Efficacy (%) at Day 41 (Bovicola ovis [2]; spinosad 0.4 mg/kg in OP/IPM/OSU (70:15:15) with 5% oleic acid): 46%
- Efficacy (%) at Day 41 (Bovicola ovis [2]; spinosad 0.8 mg/kg in OP/IPM/OSU (70:15:15) with 5% oleic acid): 78%
- Efficacy (%) at Day 41 (Bovicola ovis [2]; spinosad 1.6 mg/kg in OP/IPM/OSU (70:15:15) with 5% oleic acid): 37%
- Efficacy (%) at Day 41 (Bovicola ovis [2]; spinosad 3.2 mg/kg in OP/IPM/OSU (70:15:15) with 5% oleic acid): 93%

Compound: CC(=O)CC(C)(C)O [Diacetone alcohol]
- Mean skin irritation scores (Merino sheep skin): 2
- skin irritancy / histological dermatitis (in words) (Merino sheep skin): non-irritant

Compound: CCCCOCCOCCO [DB, diethylene glycol n-butyl ether]
- Mean skin irritation scores (Merino sheep skin): 7
- skin irritancy / histological dermatitis (in words) (Merino sheep skin): highly irritant

Compound: CCCCCCCCCCCCCCCCCC(=O)OCCCCCCCC [OS, octyl stearate]
- spread of zeta-cypermethrin from the backline (in words) [3]: modest spread; also recorded: better spread
- Physical Properties (in words) [1]: spreads, lubricant

Compound: CCCCCCCCCCCCCC(=O)OC(C)C [IPM, isopropyl myristate]
- efficacy by the end of the study (Bovicola ovis [4]): about 90%
- spread of zeta-cypermethrin from the backline (in words) [3]: greatest spread; also recorded: best spread
- skin reaction at the site of application ([3]; carrier with 10 mg/mL zeta-cypermethrin): severe scabbing/crusting of the skin
- Mean skin irritation scores (Merino sheep skin): 8
- skin irritancy / histological dermatitis (in words) (Merino sheep skin): severe dermatitis
- freezing point [1]: −2 to −6 °C

Compound: CCCCCCCCCCC(CO)CCCCCCCC (centres unmarked) [2-octyl-dodecanol]
- skin irritancy / histological dermatitis (in words) (Merino sheep skin): highly irritant

Compound: propylene glycol dicaprylate dicaprate
- skin irritancy / histological dermatitis (in words) (Merino sheep skin): highly irritant

Compound: CCCCCCCC/C=C\CCCCCCCC(=O)OC [methyl oleate]
- skin irritancy / histological dermatitis (in words) (Merino sheep skin): highly irritant

Compound: CC1(C)C(C=C(Cl)Cl)C1C(=O)OC(C#N)c1cccc(Oc2ccccc2)c1 (centres unmarked) [zeta-cypermethrin]
- lice control, lice with high and moderate resistance to SPs (in words) ([5]; 2 mg/kg zeta-cypermethrin in nonaqueous formulations, commercial deltamethrin, Hartley and Claremont strains): did not give adequate control
- lice control, susceptible strain (in words) ([5]; zeta-cypermethrin 2 mg/kg pour-on): did control
- lice control, susceptible strain (in words) ([5]; zeta-cypermethrin 2 mg/kg pour-on, listed as Zeta-cypermethrin): eradicated lice
- lice control, mildly resistant strain (in words) ([5]; zeta-cypermethrin 2 mg/kg pour-on, sheep infested with mildly resistant strain): excellent control
- efficacy at eight weeks ([6]; 0.66 mg/kg (zeta-cypermethrin in wool grease)): 0%
- efficacy at eight weeks [6, 7]: 43%
- lice control compared with the other treatments (in words) ([6]; weekly counts for eight weeks): no significant differences in efficacy at eight weeks; also recorded: better lice control than the commercial pour-ons for the first 5 weeks

Compound: isocetyl stearate [ICS]
- skin irritancy / histological dermatitis (in words) (Merino sheep skin): mild to moderate dermatitis

Compound: CC1(C)[C@H](C(=O)O[C@H](C#N)c2cccc(Oc3ccccc3)c2)[C@@H]1C=C(Br)Br [deltamethrin]
- efficacy at eight weeks [6, 7]: 8%

Compound: COC(C)COC(C)CO (centres unmarked) [DPM, dipropylene glycol methyl ether]
- Mean skin irritation scores (Merino sheep skin): 4
- skin irritancy / histological dermatitis (in words) (Merino sheep skin): mild to moderate dermatitis

Compound: CC1(C)C(C=C(Cl)Cl)C1C(=O)OC(C#N)c1cccc(Oc2ccccc2)c1 (centres unmarked) [alphacypermethrin]
- efficacy at eight weeks ([6]; 4 mg/kg (alphacypermethrin in commercial formulation)): 9%
